# Reference: patent publication US20040048772A1, “Preventives for arthritis” (priority 2001, published 2004)
# Key:
# [1] = tested on: Mice with Type II Collagen-Induced Arthritis; assay: Effect of N-acetylhydroxyproline in mice with type II collagen-induced arthritis (arthritis score, preventive feeding); type: in vivo, DBA/1J mice; details: for Score of arthritis: mean±SE, N=20, score 0-16 points
# Description: Effect of N-acetylhydroxyproline in Mice with Type II Collagen-Induced Arthritis
# It is known that arthritis is induced in DBA/1J mice (Charles River) by administering type II collagen two times.
# As the first administration of type II collagen, a solution prepared by mixing an equal amount of type II collagen [Collagen Gijutsu Kenshu-Kai (MCK)] and Freund's complete adjuvant (Iatron) and emulsifying the mixture using a homogenizer was intradermally administered to 6-week old male DBA/1J mice (Charles River) in an amount of 100 μl per one animal.
# At day 21 after the first administration of type II collagen, as the second administration of type II collagen, a solution prepared by mixing an equal amount of type II collagen and Freund's complete adjuvant and emulsifying the mixture using a homogenizer in a similar manner was intradermally administered to the animals in an amount of 100 μl per one animal. In this manner, arthritis was induced in mice.
# Starting on the day of the first administration of type II collagen, the mice were bred by feeding a powder feed, CE-2 (CLEA Japan), containing the addition of 0.02, 0.1 or 0.5% (hereinafter % refers to wt %) of N-acetylhydroxyproline (Kyowa Hakko Kogyo). As control, a group of mice were fed with the powder feed CE-2 containing no additive. At days 23, 27, 30, 33, 36, 40 and 42 after the first administration of type II collagen, the extent of the onset of arthritis was scored according to the following indices.
# Scoring was carried out by applying 0-4 points with respect to […] of mice: 0: no symptom; 1: swelling of one finger or swelling (slight) of ankles; 2: swelling of 1-3 fingers or swelling of ankles; 3: swelling of 3-5 fingers plus swelling of ankles; and 4: swelling of all the fingers plus swelling of ankles. Each mouse was scored the total of the points of 4 paws, namely, 0-16 points. Twenty mice each were subjected to observation with respect to each of the conditions.
# In the table, the figures show the score under different treatment conditions, which is given as mean±SE (N=20).
# In the table, “no treatment” means no treatment with type II collagen.
# [2] = tested on: animal model for arthritis; details: administration after induction of arthritis; cited from earlier work
# [3] = tested on: systemic injury of ear and tail; chondral injury at joints; details: in vivo; cited from earlier work
smiles,measurement,setting,value
"CC(=O)N1C[C@H](O)C[C@H]1C(=O)O [N-Acetylhydroxyproline, N-acetylhydroxyproline]",Rising of the score of arthritis compared with feed containing no additive,[1]; 0.02% in powder feed CE-2,suppressive tendency
same,Score of arthritis,"[1]; 0.02% in powder feed CE-2, day 23",0.0 ± 0.0
same,Score of arthritis,"[1]; 0.02% in powder feed CE-2, day 27",4.2 ± 0.8
same,Score of arthritis,"[1]; 0.02% in powder feed CE-2, day 30",7.6 ± 0.9
same,Score of arthritis,"[1]; 0.02% in powder feed CE-2, day 33",9.3 ± 0.8
same,Score of arthritis,"[1]; 0.02% in powder feed CE-2, day 36",9.7 ± 0.9
same,Score of arthritis,"[1]; 0.02% in powder feed CE-2, day 40",10.0 ± 0.8
same,Score of arthritis,"[1]; 0.02% in powder feed CE-2, day 42",10.1 ± 0.9
same,Score of arthritis,"[1]; 0.02% in powder feed CE-2 from first collagen administration, day 0",0.0 ± 0.0
same,Rising of the score of arthritis compared with feed containing no additive,[1]; 0.1% in powder feed CE-2,suppressive tendency
same,Score of arthritis,"[1]; 0.1% in powder feed CE-2, day 23",0.1 ± 0.1
same,Score of arthritis,"[1]; 0.1% in powder feed CE-2, day 27",4.6 ± 0.9
same,Score of arthritis,"[1]; 0.1% in powder feed CE-2, day 30",7.3 ± 1.0
same,Score of arthritis,"[1]; 0.1% in powder feed CE-2, day 33",8.3 ± 1.1
same,Score of arthritis,"[1]; 0.1% in powder feed CE-2, day 36",8.6 ± 1.0
same,Score of arthritis,"[1]; 0.1% in powder feed CE-2, day 40",8.5 ± 1.0
same,Score of arthritis,"[1]; 0.1% in powder feed CE-2, day 42",8.7 ± 1.0
same,Score of arthritis,"[1]; 0.1% in powder feed CE-2 from first collagen administration, day 0",0.0 ± 0.0
same,Scores of arthritis compared with control (feed containing no addition),[1]; 0.5% in powder feed CE-2,significantly low
same,Score of arthritis,"[1]; 0.5% in powder feed CE-2, day 23",0.0 ± 0.0
same,Score of arthritis,"[1]; 0.5% in powder feed CE-2, day 27",3.8 ± 0.7
same,Score of arthritis,"[1]; 0.5% in powder feed CE-2, day 30",5.9 ± 0.9
same,Score of arthritis,"[1]; 0.5% in powder feed CE-2, day 33",7.7 ± 0.8
same,Score of arthritis,"[1]; 0.5% in powder feed CE-2, day 36",8.1 ± 0.8
same,Score of arthritis,"[1]; 0.5% in powder feed CE-2, day 40",8.4 ± 0.7
same,Score of arthritis,"[1]; 0.5% in powder feed CE-2, day 42",8.5 ± 0.7
same,Score of arthritis,"[1]; 0.5% in powder feed CE-2 from first collagen administration, day 0",0.0 ± 0.0
same,Onset of arthritis,"[1]; taken previously, before the onset of arthritis",could be suppressed
same,Aggravation of arthritis,[2],can prevent aggravation of arthritis
same,Effect on chondral injury at joints,[3],no effect
same,Effect on systemic injury of ear and tail,[3],shows a therapeutic effect
